According to patent publication US20230277654A1, “STABLE FORMULATIONS OF CYTOMEGALOVIRUS” (priority 2017, published 2023):

How the values were obtained:
rdCMV = assay: Shield-1 dependence of rdCMV replication; format: cell-based, cytomegalovirus; conditions: rdCMV in ARPE-19 cells and other human primary cells
Source text: Conversely, rdCMV should not replicate substantially in the absence of Shield-1. The quality of a replication defective mechanism is judged by how stringent the control is under the conditions not permissive for viral replication, i.e., the infectious titers of progeny virions under these conditions. The rdCMV described herein cannot replicate substantially (either in cell culture or within a patient) without Shield-1 present. Its replication in ARPE-19 cells and other types of human primary cells is conditional, and a molar concentration of Shield-1 greater than 0.1 μM, preferable at least 2 μM, in the culture medium is required to sustain viral replication.

FKBP = conditions: Clackson et al., 1998; cited from earlier work

## CC[C@H](C(=O)N1CCCC[C@H]1C(=O)O[C@H](CCc1ccc(OC)c(OC)c1)c1cccc(OCCN2CCOCC2)c1)c1cc(OC)c(OC)c(OC)c1 [Shield-1]
rdCMV
  molar concentration in the culture medium required to sustain viral replication: greater than 0.1 μM
FKBP
  binding to the F36V derivative compared to wild-type FKBP (tighter): about 1,000 fold
